Measured values: US11053219B2, “Substituted pyridines as TYK2 inhibitors” (FronThera U.S. Pharmaceuticals LLC, priority 2018, dated 2021)

Legend:
TYK2 (JH2 domain) = TYK2 (JH2 domain) (Homo sapiens (Human), UniProt P29597); test: TYK2 JH2 domain binding assay (DiscoverX KINOMEscan); conditions: 11-point 3-fold dilution, duplicate
[1] = tested on: INFα induced pSTAT5 in human PBMC; test: INFα induced pSTAT5 in human PBMC; assay type: cell-based; conditions: human PBMC, INFα 5000 units/ml; read-out: p-STAT5 IC50
JAK1 (JH2 domain) = JAK1 (JH2 domain) (Homo sapiens (Human), UniProt P23458); test: JAK1 JH2 domain binding assay (KINOMEscan); conditions: KINOMEscan; read-out: JAK1 (JH2 domain) binding Kd
JAK2 (JH1 domain) = JAK2 (JH1 domain) (Homo sapiens (Human), UniProt O60674); test: JAK2 JH1 domain binding assay (KINOMEscan)
[2] = tested on: GM-CSF-induced pSTAT5 in human PBMC; test: GM-CSF-induced pSTAT5 in human PBMC; assay type: cell-based; conditions: GM-CSF 10 ng/ml
Experimental: (§1) Fresh Human PBMCs were resuspended in RPMI 1640 medium with 10% FBS. Cells were seeded in a round bottom 96-well plate at the concentration of 200,000 cells/well. A 10-point dilution series of test compound (top dose 10 uM, 1:5 dilution) was added to the well using the liquid dispenser (Tecan D300e) and incubated for 1 hour at 37 C. Then human IL-12 recombinant protein (R&D Systems) was added to the well at the final concentration of 10 ng/ml and incubated for 15 minutes at 37 C. Cell lysates were prepared and analyzed by Phospho STAT4 (Tyr693) Kit (Meso Scale Discovery) following manufacturer's protocol.
(§2) For calculation of the inhibition rate, the relative pSTAT4 signal of each well=pSTAT4 signal of each well−the average pSTAT4 signal of baseline. The inhibition %=(the average pSTAT4 signal of IL-12 treatment wells−the relative of pSTAT4 signal in each compound containing well)/the average pSTAT4 signal of IL-12 treatment wells*100%
(§3) The curve was plotted as the inhibition % (y-axis) vs. compounds concentration (x-axis) and was fitted with log(inhibitor) vs. normalized response—Variable slope by GraphPad Prism7.0. Control is BMS-986165:
(§4) Similar to the method for IL-12 induced pSTAT4 in human PBMC described above, these assays were performed to check if test compounds have cross-activity to JAK1. JAK2 and JAK3 pathways in human PBMC. The procedure is as described with change of stimuli to 10 ng/ml of GM-CSF or 20 ng/ml of IL-2.

[3] = tested on: IL-2-induced pSTAT5 in human PBMC; test: IL-2-induced pSTAT5 in human PBMC; assay type: cell-based; conditions: IL-2 20 ng/ml
Experimental: as §1, §2, §3, §4

[4] = Pharmacokinetic study in Sprague Dawley rats; assay type: in vivo; conditions: rat, plasma; for Vd: read-out: Vdss
Experimental: (§5) The pharmacokinetics of test compounds were evaluated in male C57BL/6 mice, Sprague Dawley rats, Beagle dogs, and cynomolgus monkeys when administered via oral gavage and IV injection. The animals were fasted overnight before administration. Plasma samples were collected predose and at 0.5, 1, 3, 6, 9, 12, and 24 hours postdose. The samples were analyzed by LC/MS/MS and the concentration of test compound at each timepoint was determined by linear regression. Pharmacokinetic parameters were calculated from the plasma concentrations using Pheonix WinNonlin.

[5] = Pharmacokinetic study in Beagle dogs; assay type: in vivo; conditions: dog, plasma; for Vd: read-out: Vdss
Experimental: as §5

[6] = Pharmacokinetic study in cynomolgus monkeys; assay type: in vivo; conditions: cynomolgus monkey, plasma
Experimental: as §5

[7] = Pharmacokinetic study in C57BL/6 mice; assay type: in vivo; design: AUC: unit not given here
Experimental: as §5

[8] = Oral (5 mg/kg), read-out: C0 or Cmax (Cmax)
[9] = iv, I.V. (1 mg/kg), read-out: C0 or Cmax (C0)
[10] = Oral (2 mg/kg), read-out: C0 or Cmax (Cmax)
[11] = Oral (2 mg/kg), NA: no detectable
[12] = male, mouse, plasma, Oral (10 mg/kg)
[13] = male, mouse, plasma, iv, I.V. (2 mg/kg)

TYK2 (JH2 domain), sequence (P29597 589-875): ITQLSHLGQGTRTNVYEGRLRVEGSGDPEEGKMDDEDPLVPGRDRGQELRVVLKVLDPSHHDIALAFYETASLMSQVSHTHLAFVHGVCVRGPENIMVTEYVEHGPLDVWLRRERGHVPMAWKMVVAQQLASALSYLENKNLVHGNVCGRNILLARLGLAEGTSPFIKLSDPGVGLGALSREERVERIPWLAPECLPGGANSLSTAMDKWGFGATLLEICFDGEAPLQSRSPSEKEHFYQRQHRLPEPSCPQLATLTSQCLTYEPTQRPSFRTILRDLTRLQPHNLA
JAK1 (JH2 domain), sequence (P23458 583-855): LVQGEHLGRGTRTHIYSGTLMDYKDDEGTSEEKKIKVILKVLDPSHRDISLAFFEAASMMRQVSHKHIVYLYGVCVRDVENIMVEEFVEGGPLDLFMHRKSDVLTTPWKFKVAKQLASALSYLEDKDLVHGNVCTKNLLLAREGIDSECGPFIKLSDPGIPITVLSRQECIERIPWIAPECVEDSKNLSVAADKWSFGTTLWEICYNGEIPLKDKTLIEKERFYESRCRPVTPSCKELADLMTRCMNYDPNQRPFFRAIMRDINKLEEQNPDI
JAK2 (JH1 domain), sequence (O60674 849-1124): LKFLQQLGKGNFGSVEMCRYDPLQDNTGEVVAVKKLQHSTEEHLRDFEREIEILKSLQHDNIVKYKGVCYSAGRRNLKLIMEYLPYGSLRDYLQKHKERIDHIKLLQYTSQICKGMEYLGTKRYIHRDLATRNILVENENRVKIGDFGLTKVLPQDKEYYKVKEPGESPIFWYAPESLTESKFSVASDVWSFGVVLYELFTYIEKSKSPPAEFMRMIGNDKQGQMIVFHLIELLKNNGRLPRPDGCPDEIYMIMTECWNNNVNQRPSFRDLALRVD

Row | Kd (TYK2 (JH2 domain)) [nM] | Kd (JAK1 (JH2 domain)) [nM] | Kd (JAK2 (JH1 domain)) [nM] | AUC ([4]; Oral (5 mg/kg)) [ng·h/mL] | Tmax ([4]; Oral (5 mg/kg)) [h] | bioavailability ([4]; Oral (5 mg/kg)) [%] | half-life ([4]; Oral (5 mg/kg)) [min] | Cmax [4, 8] [ng/mL] | AUC ([4]; iv, I.V. (1 mg/kg)) [ng·h/mL] | clearance ([4]; iv, I.V. (1 mg/kg)) [mL/min/kg] | half-life ([4]; iv, I.V. (1 mg/kg)) [min] | Cmax [4, 9] [ng/mL] | Vd ([4]; iv, I.V. (1 mg/kg)) [L/kg] | AUC ([5]; Oral (2 mg/kg)) [ng·h/mL] | Tmax ([5]; Oral (2 mg/kg)) [h] | bioavailability ([5]; Oral (2 mg/kg)) [%] | half-life ([5]; Oral (2 mg/kg)) [min] | Structure (SMILES) | IC50 [1] [nM] | IC50 [2] [nM] | IC50 [3] [nM] | also measured
1 | ≤ 1 | < 100 | 100 to 1000 | 499 ± 502 | 0.42 ± 0.14 | 18.7 ± 18.9 | 68.4 ± 12 | 185 ± 138 | 533 ± 225 | 34.3 ± 12 | 45.5 ± 36 | 1190 ± 116 | 1.31 ± 0.42 | 442 ± 81 | 2 | 38.5 ± 7.1 | 303 ± 28.2 | [2H]C([2H])([2H])CC(=O)c1cnc(Nc2ccc(C(C)(C)O)c(F)n2)cc1Nc1nccc(-c2ncn(C([2H])([2H])[2H])n2)c1OC [Example 201] | < 100 | 100 to 1000 | 100 to 1000 | Cmax [5, 10]: 103 ± 28 ng/mL; AUC ([5]; iv, I.V. (1 mg/kg)): 575 ± 158 ng·h/mL; clearance ([5]; iv, I.V. (1 mg/kg)): 29.3 ± 8.01 mL/min/kg; half-life ([5]; iv, I.V. (1 mg/kg)): 272 ± 75.6 min; Cmax [5, 9]: 458 ± 336 ng/mL; Vd ([5]; iv, I.V. (1 mg/kg)): 7.41 ± 2.64 L/kg; AUC [6, 11]: 67.9 ± 21 ng·h/mL; Tmax [6, 11]: 2.33 ± 1.5 h; bioavailability [6, 11]: 4.67 ± 1.5%; half-life [6, 11]: 185 ± 39.6 min; Cmax ([6]; Oral (2 mg/kg), NA: no detectable, read-out: C0 or Cmax (Cmax)): 13.9 ± 2 ng/mL; clearance ([6]; intravenous, printed on the Oral (2 mg/kg) line (probably belongs to I.V. 1 mg/kg)): 23.2 ± 4.3 mL/min/kg; Vd ([6]; intravenous, printed on the Oral (2 mg/kg) line (probably belongs to I.V. 1 mg/kg), read-out: Vdss): 1.47 ± 0.1 L/kg; AUC ([6]; iv, I.V. (1 mg/kg)): 726 ± 134 ng·h/mL; half-life ([6]; iv, I.V. (1 mg/kg)): 109 ± 45.6 min; Cmax [6, 9]: 849 ± 50 ng/mL
2 | ≤ 1 | < 100 | 100 to 1000 | 210 ± 60 | 4 ± 2 | 8.35 ± 2.4 | 77.4 ± 14.4 | 50.1 ± 11 | 504 ± 58 | 33.1 ± 4 | 19.4 ± 2.1 | 1980 ± 101 | 0.653 ± 0.03 | 555 ± 154 | 1 | 55 ± 15 | 95.4 ± 9 | [2H]C([2H])([2H])CC(=O)c1cnc(Nc2ccc(C(C)(C)O)c(F)n2)cc1Nc1cccc(-c2ncn(C([2H])([2H])[2H])n2)c1OC [Example 202] | < 100 | 100 to 1000 | 100 to 1000 | AUC ([7]; I.V. (2 mg/kg)): 1911; AUC ([7]; Oral (10 mg/kg)): 6395; Tmax [7, 12]: 30 min; bioavailability [7, 12]: 66.6%; half-life [7, 12]: 196 min; Cmax ([7]; male, mouse, plasma, Oral (10 mg/kg), read-out: C0 or Cmax (Cmax)): 1900 ng/mL; clearance [7, 13]: 17.3 mL/min/kg; half-life [7, 13]: 58.2 min; Cmax ([7]; male, mouse, plasma, iv, I.V. (2 mg/kg), read-out: C0 or Cmax (C0)): 3340 ng/mL; Vd ([7]; male, mouse, plasma, iv, I.V. (2 mg/kg), read-out: Vdss): 0.785 L/kg; Cmax [5, 10]: 156 ± 53 ng/mL; AUC ([5]; iv, I.V. (1 mg/kg)): 504 ± 49 ng·h/mL; clearance ([5]; iv, I.V. (1 mg/kg)): 32.7 ± 3.1 mL/min/kg; half-life ([5]; iv, I.V. (1 mg/kg)): 104 ± 16.8 min; Cmax [5, 9]: 469 ± 255 ng/mL; Vd ([5]; iv, I.V. (1 mg/kg)): 4.21 ± 0.19 L/kg
